Measurements as given in patent US11319299B2, “Substituted carboxamides as inhibitors of WDR5 protein-protein binding” (PROPELLON THERAPEUTICS INC., priority 2016, dated 2022).
Read-outs that look alike come from different tables or passages of the source.

How the values were obtained:
WDR5 = WDR5 (Homo sapiens (Human), UniProt P61964); assay: Surface Plasmon Resonance (SPR) assay, KD and residence time; type: binding; settings: read-out: WDR5 binding affinity (KD)
MV4-11 cells = assay: Cell proliferation assay (ATPlite); type: cell-based; settings: MV-411 cells, five days, read-out: In vitro whole cell potency in MV-411 cells, (IC50)
Method: (iv) Cell Proliferation Assay
MV4-11 cells were seeded into a 96-well plate at 1,000 cells/well in 150 μl medium (Alpha-MEM containing 10% FBS, 100 μg/ml Normocin, and 50 μg/ml Gentamycin, Invitrogen). A HP D300 digital dispenser was used to dose cells with DMSO or test compounds across a 10-point range of concentrations (high dose of 10 μM), and cultures were grown in a humidified 5% CO2 incubator at 37° C. After five days, plates were removed from the incubator and equilibrated to room temperature. An equal volume of ATPlite assay reagent was added to each well, and samples were processed according to manufacturer's instructions (Perkin Elmer). Luminescent signal was measured using an Envision plate reader equipped with a US-Luminescence detector.

[1] = surface plasmon resonance (SPR)
[2] = surface plasmon resonance (SPR) assay

| Kd (WDR5; [1]) | IC50 (MV4-11 cells; Homo sapiens, MV4-11, 120 h) | Kd (WDR5; [2]) | IC50 (MV4-11 cells) | Compound |
| --- | --- | --- | --- | --- |
| 0.0011 µM | 0.017 µM |  |  | C[C@@H]1CN(c2cc(F)c(C3=CCCN(c4ncc(CN5CCOCC5)cn4)C3)cc2NC(=O)c2c[nH]c(=O)cc2C(F)(F)F)C[C@H](C)N1C [Example 415, N-[4-fluoro-5-[1-[5-(morpholin-4-ylmethyl)pyrimidin-2-yl]-3,6-dihydro-2H-pyridin-5-yl]-2-[(3R,5S)-3,4,5-trimethylpiperazin-1-yl]phenyl]-6-oxo-4-(trifluoromethyl)-1H-pyridine-3-carboxamide] |
|  | 0.257 µM | 0.00447 µM |  | CC(C)COc1ncc(-c2cc(NC(=O)c3c[nH]c(=O)cc3C(F)(F)F)c(N3C[C@@H](C)N(C)[C@@H](C)C3)cc2F)cc1Cl [Example 91, N-[5-[5-chloro-6-(2-methylpropoxy)pyridin-3-yl]-4-fluoro-2-[(3R,5S)-3,4,5-trimethylpiperazin-1-yl]phenyl]-6-oxo-4-(trifluoromethyl)-1H-pyridine-3-carboxamide] |
| 0.00397 µM | 0.024 µM |  |  | C[C@@H]1CN(c2cc(F)c(-c3nc(C(=O)N(C)CC4CC4)cs3)cc2NC(=O)c2c[nH]c(=O)cc2C(F)(F)F)C[C@H](C)N1C [Example 483, N-(cyclopropylmethyl)-2-[2-fluoro-5-[[6-oxo-4-(trifluoromethyl)-1H-pyridine-3-carbonyl]amino]-4-[(3R,5S)-3,4,5-trimethylpiperazin-1-yl]phenyl]-N-methyl-1,3-thiazole-4-carboxamide] |
|  | 0.071 µM | 0.0109 µM |  | C[C@@H]1CN(c2cc(F)c(-c3ccc(OCC4CC4)c(Cl)c3)cc2NC(=O)c2c[nH]c(=O)cc2C(F)(F)F)C[C@H](C)N1C [Example 92, N-[5-[3-chloro-4-(cyclopropylmethoxy)phenyl]-4-fluoro-2-[(3R,5S)-3,4,5-trimethylpiperazin-1-yl]phenyl]-6-oxo-4-(trifluoromethyl)-1H-pyridine-3-carboxamide] |
| 0.000579 µM |  |  | 0.068 µM | 4-(difluoromethyl)-N-[4-fluoro-5-[2-[(3R)-3-methylmorpholin-4-yl]pyrimidin-5-yl]-2-[(3S,5R)-3,4,5-trimethylpiperazin-1-yl]phenyl]-6-oxo-1H-pyridine-3-carboxamide [Example 521] |
|  | 0.052 µM | 0.00197 µM |  | CC1CN(c2cc(F)c(-c3ccc(N4C[C@@H](C)O[C@@H](C)C4)nc3)cc2NC(=O)c2c[nH]c(=O)cc2C(F)(F)F)CCN1C (stereo in doubt) [Example 341, N-[4-fluoro-5-[6-[(2R,6S)-2,6-dimethylmorpholin-4-yl]pyridin-3-yl]-2-[(3R)-3,4-dimethylpiperazin-1-yl]phenyl]-6-oxo-4-(trifluoromethyl)-1H-pyridine-3-carboxamide] |
| 0.000658 µM | 0.008 µM |  |  | C[C@@H]1CN(c2cc(F)c(C3=CCCN(c4ncc(CN(C)C)cn4)C3)cc2NC(=O)c2c[nH]c(=O)cc2C(F)(F)F)C[C@H](C)N1C [Example 414, N-[5-[1-[5-[(dimethylamino)methyl]pyrimidin-2-yl]-3,6-dihydro-2H-pyridin-5-yl]-4-fluoro-2-[(3R,5S)-3,4,5-trimethylpiperazin-1-yl]phenyl]-6-oxo-4-(trifluoromethyl)-1H-pyridine-3-carboxamide] |
|  | 0.048 µM | 0.00217 µM |  | C[C@@H]1CN(c2cc(F)c(-c3cnc(N4CCOCC4)nc3)cc2NC(=O)c2cn(C)c(=O)cc2C(F)(F)F)C[C@H](C)N1C [Example 93, N-[4-fluoro-5-(2-morpholin-4-ylpyrimidin-5-yl)-2-[(3R,5S)-3,4,5-trimethylpiperazin-1-yl]phenyl]-1-methyl-6-oxo-4-(trifluoromethyl)pyridine-3-carboxamide] |
|  | 0.02 µM | 0.000877 µM |  | C[C@@H]1CN(c2cc(F)c(-c3ccnc(N4CCOCC4)n3)cc2NC(=O)c2c[nH]c(=O)cc2C(F)(F)F)C[C@H](C)N1C [Example 378, N-[4-fluoro-5-(2-morpholin-4-ylpyrimidin-4-yl)-2-[(3R,5S)-3,4,5-trimethylpiperazin-1-yl]phenyl]-6-oxo-4-(trifluoromethyl)-1H-pyridine-3-carboxamide] |
|  | 2.9 µM |  |  | CN1CCN(c2cc(F)c(-c3ccnc(N4CCOCC4)c3)cc2NC(=O)c2c[nH]c(=O)cc2C(F)(F)F)CC1 [Example 46, N-(4-fluoro-2-(4-methylpiperazin-1-yl)-5-(2-morpholinopyridin-4-yl)phenyl)-6-oxo-4-(trifluoromethyl)-1,6-dihydropyridine-3-carboxamide] |
|  | > 10 µM |  |  | C[C@@H]1CN(c2cc(F)ccc2NC(=O)c2c[nH]c(=O)cc2C(F)(F)F)C[C@H](C)N1C [Example 26, N-[4-fluoro-2-[(3R,5S)-3,4,5-trimethylpiperazin-1-yl]phenyl]-6-oxo-4-(trifluoromethyl)-1H-pyridine-3-carboxamide] |
|  | 0.032 µM |  |  | C[C@@H]1CN(c2cc(F)c(-c3cccc(N4CCOCC4)n3)cc2NC(=O)c2c[nH]c(=O)cc2C(F)(F)F)C[C@H](C)N1C [Example 473, N-[4-fluoro-5-(6-morpholin-4-ylpyridin-2-yl)-2-[(3R,5S)-3,4,5-trimethylpiperazin-1-yl]phenyl]-6-oxo-4-(trifluoromethyl)-1H-pyridine-3-carboxamide] |
|  | 0.574 µM |  |  | CN1CCN(c2cc(F)c(-c3ccc(N4CCOCC4)nc3)cc2NC(=O)c2c[nH]c(=O)cc2C(F)(F)F)CC1 [Example 4, N-(4-fluoro-2-(4-methylpiperazin-1-yl)-5-(6-morpholinopyridin-3-yl)phenyl)-6-oxo-4-(trifluoromethyl)-1,6-dihydropyridine-3-carboxamide] |
|  | > 10 µM |  |  | Cc1cc(C(=O)Nc2cc(-c3cnc(N4CCOCC4)nc3)c(F)cc2N2C[C@@H](C)N(C)[C@@H](C)C2)ccc1F [Example 25, 4-fluoro-N-[4-fluoro-5-(2-morpholin-4-ylpyrimidin-5-yl)-2-[(3R,5S)-3,4,5-trimethylpiperazin-1-yl]phenyl]-3-methylbenzamide] |
|  | 5.27 µM |  |  | CN1CCN(c2cc(F)c(C3=CCOCC3)cc2NC(=O)c2c[nH]c(=O)cc2C(F)(F)F)CC1 [Example 22, N-[5-(3,6-dihydro-2H-pyran-4-yl)-4-fluoro-2-(4-methylpiperazin-1-yl)phenyl]-6-oxo-4-(trifluoromethyl)-1H-pyridine-3-carboxamide] |
|  | > 10 µM |  |  | CN(C)C1CCN(c2cc(F)c(-c3cccc(CN4CCOCC4)c3)cc2NC(=O)c2c[nH]c(=O)cc2C(F)(F)F)C1 (stereo not drawn) [Example 53, N-(4-(3-(dimethylamino)pyrrolidin-1-yl)-6-fluoro-3′-(morpholinomethyl)-[1,1′-biphenyl]-3-yl)-6-oxo-4-(trifluoromethyl)-1,6-dihydropyridine-3-carboxamide] |
|  | > 10 µM |  |  | C[C@@H]1CN(c2cc(F)c(-c3cccc(CN4CCOCC4)c3)cc2NC(=O)c2c[nH]c(=O)cc2C(F)(F)F)C[C@H](C)N1C [Example 52, N-(6-fluoro-3′-(morpholinomethyl)-4-((3R,5S)-3,4,5-trimethylpiperazin-1-yl)-[1,1′-biphenyl]-3-yl)-6-oxo-4-(trifluoromethyl)-1,6-dihydropyridine-3-carboxamide] |
|  | 0.844 µM |  |  | CN1CCN(c2cc(F)c(-c3cnc(C#N)nc3)cc2NC(=O)c2c[nH]c(=O)cc2C(F)(F)F)CC1 [Example 16, N-(5-(2-cyanopyrimidin-5-yl)-4-fluoro-2-(4-methylpiperazin-1-yl)phenyl)-6-oxo-4-(trifluoromethyl)-1,6-dihydropyridine-3-carboxamide] |
